Assay: excess molar enthalpy (molar enthalpy of mixing); xn = mol fraction of the nth substance listed
Settings: 101.3 kPa, Liquid, Isothermal microcalorimeter

CCOC(=O)CC(=O)OCC [diethyl 1,3-propanedioate] + CC(C)CO
excess molar enthalpy [kcal/mol]
Settings	288.15 K	298.15 K	313.15 K	328.15 K	338.15 K	348.15 K
x1 = 0.0502	0.146	0.146	0.165	0.168	0.166	0.159
x1 = 0.0983	0.252	0.265	0.293	0.3	0.298	0.296
x1 = 0.1494	0.3339	0.3583	0.396	0.4001	0.4065	0.4054
x1 = 0.2006	0.4018	0.4238	0.4785	0.4986	0.4993	0.4947
x1 = 0.2484	0.4517	0.4907	0.5428	0.5531	0.5588	0.5578
x1 = 0.2989	0.4924	0.537	0.588	0.613	0.6095	0.6121
x1 = 0.3486	0.5217	0.5636	0.6226	0.6508	0.6477	0.6456
x1 = 0.3972	0.5413	0.5887	0.6475	0.662	0.6687	0.6649
x1 = 0.4484	0.5531	0.5985	0.6542	0.6752	0.674	0.6721
x1 = 0.4981	0.5598	0.6076	0.6513	0.6718	0.6699	0.6654
x1 = 0.5504	0.5535	0.5951	0.6367	0.6546	0.6537	0.6451
x1 = 0.6006	0.533	0.5739	0.6142	0.6224	0.6178	0.6171
x1 = 0.6485	0.5103	0.5473	0.5801	0.5863	0.5829	0.5772
x1 = 0.6985	0.4761	0.5029	0.538	0.5354	0.5261	0.5272
x1 = 0.7508	0.4223	0.4558	0.4775	0.4711	0.4606	0.4622
x1 = 0.8	0.3659	0.3905	0.4065	0.3972	0.3881	0.3846
x1 = 0.8514	0.295	0.31	0.3246	0.3131	0.304	0.297
x1 = 0.899	0.2	0.218	0.236	0.216	0.224	0.211
x1 = 0.9485	0.115	0.111	0.133	0.119	0.124	0.116

CCOC(=O)CC(=O)OCC [diethyl 1,3-propanedioate] + CCCCO
excess molar enthalpy [kcal/mol]
Settings	288.15 K	298.15 K	313.15 K	328.15 K	338.15 K	348.15 K
x1 = 0.0498	0.123	0.133	0.146	0.153	0.156	0.152
x1 = 0.1085	0.239	0.254	0.285	–	0.308	0.308
x1 = 0.1482	0.2978	0.3164	0.354	0.3676	0.3853	0.3956
x1 = 0.1991	0.3619	0.3858	0.4369	0.4627	0.472	0.4723
x1 = 0.2499	0.4099	0.4383	0.4947	0.5249	0.533	0.5418
x1 = 0.3003	0.4496	0.4828	0.544	0.576	0.587	0.5882
x1 = 0.3501	0.4754	0.5177	0.5789	0.6128	0.6219	0.6252
x1 = 0.3988	0.4967	0.5378	0.6006	0.6315	0.6429	0.6482
x1 = 0.4501	0.5096	0.5507	0.6128	0.6424	0.6539	0.6511
x1 = 0.5	0.5134	0.5557	0.6104	0.6415	0.6513	0.6487
x1 = 0.548	0.51	0.5511	0.6028	0.6322	0.6379	0.6322
x1 = 0.5984	0.5005	0.5337	0.582	0.6047	0.6121	0.6119
x1 = 0.6512	0.4742	0.5086	0.5495	0.5705	0.575	0.5693
x1 = 0.6965	0.4498	0.4763	0.51	0.5256	0.5313	0.5239
x1 = 0.749	0.4037	0.4264	0.4598	0.4627	0.4625	0.457
x1 = 0.7985	0.3516	0.3683	0.3896	0.397	0.3963	0.3922
x1 = 0.8502	0.282	0.2949	0.3109	0.3107	0.3162	0.306
x1 = 0.8981	0.203	0.213	0.226	0.216	0.232	0.224
x1 = 0.948	0.109	0.114	0.123	0.111	0.127	0.122

CCOC(=O)CC(=O)OCC [diethyl 1,3-propanedioate] + CCOC(C)=O
excess molar enthalpy [kcal/mol]
Settings	288.19 K	298.15 K	313.15 K	328.15 K	338.15 K	348.15 K
x1 = 0.0504	-0.000239	-0.000478	-0.000956	-0.00143	-0.00167	-0.00239
x1 = 0.1008	-0.000239	-0.000717	-0.00143	-0.00239	-0.00335	-0.00406
x1 = 0.148	-0.000478	-0.000956	-0.00191	-0.00335	-0.0043	-0.0055
x1 = 0.2007	-0.000478	-0.0012	-0.00239	-0.00406	-0.00526	-0.00645
x1 = 0.2496	-0.000478	-0.00143	-0.00263	-0.00454	-0.00598	-0.00741
x1 = 0.2974	-0.000478	-0.00143	-0.00287	-0.00478	-0.00621	-0.00789
x1 = 0.3475	-0.000478	-0.00143	-0.00287	-0.00502	-0.00669	-0.00813
x1 = 0.4	-0.000478	-0.00143	-0.00287	-0.00502	-0.00669	-0.00837
x1 = 0.447	-0.000478	-0.00143	-0.00287	-0.00502	-0.00669	-0.00813
x1 = 0.5003	-0.000478	-0.0012	-0.00287	-0.00478	-0.00645	-0.00789
x1 = 0.5474	-0.000478	-0.0012	-0.00263	-0.00454	-0.00621	-0.00765
x1 = 0.601	-0.000239	-0.000956	-0.00239	-0.0043	-0.00574	-0.00717
x1 = 0.6476	-0.000239	-0.000956	-0.00215	-0.00406	-0.00526	-0.00645
x1 = 0.7009	-0.000239	-0.000717	-0.00191	-0.00359	-0.00454	-0.00574
x1 = 0.7514	0	-0.000717	-0.00167	-0.00311	-0.00406	-0.00502
x1 = 0.7986	0	-0.000478	-0.00143	-0.00239	-0.00335	-0.00406
x1 = 0.8476	0	-0.000239	-0.000956	-0.00191	-0.00239	-0.00311
x1 = 0.8985	0	0	-0.000717	-0.00143	-0.00167	-0.00215
x1 = 0.9513	0.000239	0.000239	-0.000239	-0.000717	-0.000717	-0.000956

CCOC(=O)CC(=O)OCC [diethyl 1,3-propanedioate] + CCCCCO
excess molar enthalpy [kcal/mol]
Settings	288.15 K	298.15 K	313.15 K	328.15 K	338.15 K	348.15 K
x1 = 0.0494	–	0.146	–	–	–	–
x1 = 0.0583	0.153	–	0.179	0.171	0.185	0.195
x1 = 0.1007	0.235	0.258	0.282	0.292	0.294	0.301
x1 = 0.1478	0.31	0.338	0.387	0.391	0.3934	0.3987
x1 = 0.2	0.3731	0.4132	0.4584	0.4859	0.4897	0.49
x1 = 0.2474	0.4204	0.4646	0.5196	0.5471	0.5504	0.5566
x1 = 0.3001	0.4622	0.5153	0.5793	0.6047	0.6154	0.6068
x1 = 0.3474	0.4885	0.5428	0.6142	0.6424	0.6482	0.6441
x1 = 0.4003	0.512	0.5712	0.6389	0.6666	0.6707	0.6764
x1 = 0.4472	0.5203	0.5844	0.6465	0.6793	0.68	0.6816
x1 = 0.4997	0.5284	0.5896	0.6467	0.6819	0.6826	0.6781
x1 = 0.55	0.528	0.5815	0.6405	0.669	0.6692	0.6656
x1 = 0.5975	0.516	0.5674	0.6209	0.6456	0.6439	0.6405
x1 = 0.6466	0.4945	0.543	0.5906	0.6121	0.5973	0.5992
x1 = 0.6973	0.4653	0.5067	0.5447	0.5609	0.5569	0.5497
x1 = 0.7497	0.4199	0.4572	0.4857	0.4974	0.4919	0.4826
x1 = 0.7988	0.3709	0.3982	0.4185	0.4235	0.4218	0.407
x1 = 0.8494	0.3	0.3198	0.332	0.334	0.331	0.315
x1 = 0.9017	0.212	0.223	0.226	0.232	0.224	0.217
x1 = 0.9501	0.11	0.12	0.121	0.121	0.114	0.109

CCOC(=O)CC(=O)OCC [diethyl 1,3-propanedioate] + CCCCCCC
excess molar enthalpy [kcal/mol]
Settings	288.15 K	298.15 K	313.15 K	328.15 K	338.15 K	348.15 K
x1 = 0.0503	–	–	–	0.0896	0.0877	0.0903
x1 = 0.0581	0.105	0.1	0.103	–	–	–
x1 = 0.1008	–	0.171	0.171	0.179	0.174	0.174
x1 = 0.1086	0.179	–	–	–	–	–
x1 = 0.1476	0.2254	0.232	0.238	0.2433	0.247	0.2424
x1 = 0.1984	0.2751	0.2921	0.3059	0.3133	0.3143	0.3074
x1 = 0.2495	0.3131	0.348	0.3619	0.3748	0.37	0.3647
x1 = 0.3007	0.3537	0.3867	0.413	0.4221	0.4283	0.4125
x1 = 0.3481	0.3659	0.4142	0.4436	0.4587	0.4529	0.4517
x1 = 0.3997	0.3786	0.4269	0.4622	0.4828	0.4842	0.4742
x1 = 0.4474	0.381	0.4338	0.4689	0.4883	0.4943	0.4876
x1 = 0.4993	0.3826	0.4348	0.472	0.4897	0.4971	0.4912
x1 = 0.5474	0.3815	0.4326	0.4656	0.4837	0.4909	0.4811
x1 = 0.5997	0.3755	0.4202	0.4515	0.467	0.478	0.4622
x1 = 0.6481	0.3626	0.4054	0.4331	0.4431	0.4503	0.4398
x1 = 0.7008	0.3466	0.374	0.3991	0.4128	0.4149	0.3999
x1 = 0.7495	0.3231	0.3446	0.3576	0.3693	0.3678	0.3609
x1 = 0.7985	0.2868	0.3002	0.3011	0.3222	0.3181	0.3105
x1 = 0.8476	0.237	0.2443	0.2459	0.254	0.257	0.246
x1 = 0.9009	0.167	0.167	0.165	0.18	0.178	0.17
x1 = 0.9504	0.0887	0.0891	0.0887	0.104	0.0939	0.0875
